Data on 36 compounds can be found in patent US20030045557A1, “Thiadiazoles and oxadiazoles and their use as phosphodiesterase-7 inhibitors” (priority 2000, published 2003).

This experiment deals with T1, PDE7A1 (Homo sapiens, UniProt Q13946).
T1 construct: made in house; host or cells: Sf21 insect cells (baculovirus expression system)
T1 sequence (Q13946 whole entry, species assumed): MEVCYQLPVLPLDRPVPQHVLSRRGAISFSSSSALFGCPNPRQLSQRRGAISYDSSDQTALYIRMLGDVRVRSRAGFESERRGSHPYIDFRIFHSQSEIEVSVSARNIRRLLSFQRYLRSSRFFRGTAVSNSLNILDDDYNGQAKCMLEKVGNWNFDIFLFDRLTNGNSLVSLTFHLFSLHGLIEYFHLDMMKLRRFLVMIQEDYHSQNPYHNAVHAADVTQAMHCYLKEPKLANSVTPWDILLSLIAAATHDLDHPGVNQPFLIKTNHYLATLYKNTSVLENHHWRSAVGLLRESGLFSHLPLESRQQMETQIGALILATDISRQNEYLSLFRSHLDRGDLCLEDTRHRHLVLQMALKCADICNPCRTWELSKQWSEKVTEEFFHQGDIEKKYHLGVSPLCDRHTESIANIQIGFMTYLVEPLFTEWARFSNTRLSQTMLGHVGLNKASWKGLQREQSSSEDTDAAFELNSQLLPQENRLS
The experiment is described as follows: In vitro inhibition of phosphodiesterase 7 (enzymatic activity, cAMP substrate 50 nM). It is filed as biochemical. The conditions noted are these: PDE7A1 expressed in Sf 21 insect cells; cAMP 50 nM; reaction 10 minutes; read-out: IC50 (PDE7). On the procedure:
The capacity of the compounds of the invention to inhibit cyclic nucleotide phosphodiesterases was evaluated by measuring their IC50 (concentration necessary to inhibit the enzymatic activity by 50%).
PDE3A3, PDE4D3, and PDE7A1 were cloned and expressed in insect cells Sf 21 using the baculovirus expression system. The source of PDE103 and of PDE503 were human cell lines (respectively TPH1 human monocytes and MCF7 human breast adenocarcinoma). The various types of phosphodiesterases were obtained partially purified on an anion exchange column (Mono Q) according to a method adapted from Lavan B. E., Lakey T., Houslay M.D., Biochemical Pharmacology, 1989;38(22):4123-4136.
Measurement of the enzymatic activity for the various types of PDE was then made according to a method adapted from Thompson W. J. et al., Advances in Cyclic Nucleotide Research, ed. G. Brooker et al. New York: Raven Press, 1979;10:69-92.
The substrate used was cGMP for PDE1 and PDE5 and cAMP for PDE3, PDE4, and PDE7. The substrate concentration was 0.2 μM for PDE1, PDE3, and PDE5, 0.25 μM for PDE4, and 50 nM for PDE7.
The enzymatic reaction was stopped after 1 hour for PDE1, PDE3, and PDE5 and 10 minutes for PDE4 and PDE7.
Turning to `Cn1nc(-c2ccc(Cl)cc2)s/c1=N\[C@@H]1CCCC[C@H]1O` (relative stereo) [Example I8, (1R*,2R*)-2-[5-(4-Chloro-phenyl)-3-methyl-3H-[1,3,4]thiadiazol-2-ylideneamino]-cyclohexanol], the 50% inhibitory concentration (IC50) – broadly, the midpoint of a concentration-inhibition curve – was 450 nM.

With `Cn1nc(-c2ccc(S(C)(=O)=O)cc2)s/c1=N\[C@@H]1CCCC[C@H]1O` (relative stereo) [Example I9, (1R*,2R*)-2-[5-(4-Methanesulfonyl-phenyl)-3-methyl-3H-[1,3,4]thiadiazol-2-ylideneamino-cyclohexanol], the IC50 is 280 nM. The value for `Cn1nc(-c2ccc(Cl)cc2)s/c1=N\[C@@H]1CCCC[C@@H]1O` (relative stereo) [I3,25, (1R*,2S*)-2-[5-(4-Chloro-phenyl)-3-methyl-3H-[1,3,4]thiadiazol-2-ylideneamino]-cyclohexanol] was 1200 nM. Then `Cn1nc(-c2ccc(Cl)cc2)s/c1=N\c1cccc(C(=O)O)c1` [Example I1, 3-[5-(4-Chloro-phenyl)-3-methyl-3H-[1,3,4]thiadiazol-2-ylideneamino]-benzoic acid], with 150 nM; and `Cn1nc(-c2ccc(S(C)(=O)=O)cc2)s/c1=N\c1cccc(C(=O)O)c1` [Example I4], with 150 nM. Then `Cn1nc(-c2ccc(Cl)cc2)s/c1=N\C1CC2CCC1C2` (stereo not drawn) [Example I7, Bicyclo[2.2.1]hept-2-yl-[5-(4-chloro-phenyl)-3-methyl-3H-[1,3,4]thiadiazol-2-ylidene]-amine], with 1050 nM. As to `Cn1nc(-c2ccc(C(F)(F)F)cc2)s/c1=N\C1CCCCC1` [Example I11, Cyclohexyl-[3-methyl-5-(4-trifluoromethyl-phenyl)-3H-[1,3,4]thiadiazol-2-ylidene]-amine], the concentration for half-maximal inhibition (IC50) came to 980 nM.

As to `Cn1nc(-c2ccncc2)s/c1=N\C1CCCCC1` [Example I12, Cyclohexyl-(3-methyl-5-pyridin-4-yl-3H-[1,3,4]thiadiazol-2-ylidene)-amine], the IC50 came out at 290 nM. Then `Cn1nc(-c2cccc(Cl)c2)s/c1=N\C1CCCCC1` [Example I13, [5-(3-Chloro-phenyl)-3-methyl-3H-[1,3,4]thiadiazol-2-ylidene]-cyclohexyl-amine], with 700 nM; and `Cn1nc(-c2ccc(C#N)cc2)s/c1=N\C1CCCCC1` [Example I14, 4-(5-Cyclohexylimino-4-methyl-4,5-dihydro-[1,3,4]thiadiazol-2-yl)-benzonitrile], with 270 nM. Then `Cn1nc(-c2ccc(S(C)(=O)=O)cc2)s/c1=N\C1CCCCC1` [Example I15, Cyclohexyl-[5-(4-methanesulfonyl-phenyl)-3-methyl-3H-[1,3,4]thiadiazol-2-ylidene]-amine], with 140 nM. The value for `Cn1nc(-c2ccc(Cl)c(S(N)(=O)=O)c2)s/c1=N\C1CCCCC1` [Example I19, 2-Chloro-5-(5-cyclohexylimino-4-methyl-4,5-dihydro-[1,3,4]thiadiazol-2-yl)-benzenesulfonamide] was 70 nM; that for `COC(=O)c1cccc(-c2nn(C)/c(=N/C3CCCCC3)s2)c1` [Example I21, 3-(5-Cyclohexylimino-4-methyl-4,5-dihydro-[1,3,4]thiadiazol-2-yl)-benzoic acid methyl ester] was 150 nM. In the case of `Cn1nc(-c2ccc(O)c(O)c2)s/c1=N\C1CCCCC1` [Example I22, 4-(5-Cyclohexylimino-4-methyl-4,5-dihydro-[1,3,4]thiadiazol-2-yl)-benzene-1,2-diol; compound with trifluoro methanesulfonic acid], the 50% inhibitory concentration (IC50) worked out at 1000 nM. The value for `COc1cc(-c2nn(C)/c(=N/C3CCCCC3)s2)cc(OC)c1O` [Example I23, 4-(5-Cyclohexylimino-4-methyl-4,5-dihydro-[1,3,4]thiadiazol-2-yl)-2,6-dimethoxy-phenol] was 850 nM; that for `Cn1nc(-c2ccc3cccc(O)c3n2)s/c1=N\C1CCCCC1` [Example I24, 2-(5-Cyclohexylimino-4-methyl-4,5-dihydro-[1,3,4]thiadiazol-2-yl)-quinolin-8-ol] was 360 nM; that for `Cn1nc(-c2cnccn2)s/c1=N\C1CCCCC1` [Example I25, Cyclohexyl-(3-methyl-5-pyrazin-2-yl-3H-[1,3,4]thiadiazol-2-ylidene)-amine] was 470 nM. Then `COc1ccc(/C=C/c2nn(C)/c(=N/C3CCCCC3)s2)cc1O` [Example I26, 5-[(E)-2-(5-Cyclohexylimino-4-methyl-4,5-dihydro-[1,3,4]thiadiazol-2-yl)-vinyl]-2-methoxy-phenol], with 400 nM. Then `COc1cc(-c2nn(C)/c(=N/C3CCCCC3)s2)ccc1O` [Example I27, 4-(5-Cyclohexylimino-4-methyl-4,5-dihydro-[1,3,4]thiadiazol-2-yl)-2-methoxy-phenol], with 460 nM.

Consider `Cn1nc(-c2cccc3cccnc23)s/c1=N\C1CCCCC1` [Example I28, Cyclohexyl-(3-methyl-5-quinolin-8-yl-3H-[1,3,4]thiadiazol-2-ylidene)-amine], for which the concentration for half-maximal inhibition (IC50) is 230 nM. Then `CN(C)c1ccc(-c2nn(C)/c(=N/C3CCCCC3)s2)cc1` [Example I29, [4-(5-Cyclohexylimino-4-methyl-4,5-dihydro-[1,3,4]thiadiazol-2-yl)-phenyl]-dimethyl-amine], with 300 nM; and `Cn1nc(-c2ccc(S(N)(=O)=O)cc2)s/c1=N\C1CCCCC1` [Example I30, 4-(5-Cyclohexylimino-4-methyl-4,5-dihydro-[1,3,4]thiadiazol-2-yl)-benzenesulfonamide], with 140 nM; and `Cn1nc(-c2cc3cc(Cl)ccc3[nH]2)s/c1=N\C1CCCCC1` [Example I31, [5-(5-Chloro-1H-indol-2-yl)-3-methyl-3H-[1,3,4]thiadiazol-2-ylidene]-cyclohexyl-amine; compound with trifluoro-methanesulfonic acid], with 230 nM. The value for `COc1ccc(-c2nn(C)/c(=N/C3CCCCC3)s2)cc1O` [Example I32, 5-(5-Cyclohexylimino-4-methyl-4,5-dihydro-[1,3,4]thiadiazol-2-yl)-2-methoxy-phenol; compound with 1,1,1-trifluoro-methanesulfonic acid] was 230 nM; that for `Cn1nc(-c2ccc(O)cc2)s/c1=N\C1CCCCC1` [Example I33, 4-(5-Cyclohexylimino-4-methyl-4,5-dihydro-[1,3,4]thiadiazol-2-yl)-phenol; compound with 1,1,1-trifluoro-methanesulfonic acid] was 240 nM; that for `COc1ccc(-c2nn(C)/c(=N/C3CCCCC3)s2)cc1OC` [Example I34, Cyclohexyl-[5-(3,4-dimethoxy-phenyl)-3-methyl-3H-[1,3,4]thiadiazol-2-ylidene]-amine] was 630 nM. Then `COc1ccc(-c2nn(C)/c(=N/C3CCCCC3)s2)cc1Br` [Example I35, [5-(3-Bromo-4-methoxy-phenyl)-3-methyl-3H-[1,3,4]thiadiazol-2-ylidene]-cyclohexyl-amine], with 580 nM; and `Cn1nc(-c2cccc(O)c2)s/c1=N\C1CCCCC1` [Example I36, 3-(5-Cyclohexylimino-4-methyl-4,5-dihydro-[1,3,4]thiadiazol-2-yl)-phenol], with 290 nM. Turning to `COC(=O)c1ccc(-c2nn(C)/c(=N/C3CCCCC3)s2)cc1` [Example I37, 4-(5-Cyclohexylimino-4-methyl-4,5-dihydro-[1,3,4]thiadiazol-2-yl)-benzoic acid methyl ester], the IC50 was 230 nM. Then `Cn1nc(-c2cccnc2)s/c1=N\C1CCCCC1` [Example I38, Cyclohexyl-(3-methyl-5-pyridin-3-yl-3H-[1,3,4]thiadiazol-2-ylidene)-amine], with 340 nM; and `Cn1nc(-c2cccc(S(N)(=O)=O)c2)s/c1=N\C1CCCCC1` [Example I39, 3-(5-Cyclohexylimino-4-methyl-4,5-dihydro-[1,3,4]thiadiazol-2-yl)-benzenesulfonamide], with 200 nM; and `Cn1nc(-c2ccc3c(c2)OCO3)s/c1=N\C1CCCCC1` [Example I40, (5-Benzo[1,3]dioxol-5-yl-3-methyl-3H-[1,3,4]thiadiazol-2-ylidene)-cyclohexyl-amine], with 450 nM. Then `COc1cc(-c2nn(C)/c(=N/C3CCCCC3)s2)cc(OC)c1OC` [Example I41, Cyclohexyl-[3-methyl-5-(3,4,5-trimethoxy-phenyl)-3H-[1,3,4]thiadiazol-2-ylidene]-amine], with 1300 nM. The value for `Cn1nc(-c2ccc(Cl)cc2)s/c1=N\c1ccc(F)c(C(=O)O)c1` [I2,1, 5-[5-(4-Chloro-phenyl)-3-methyl-3H[1,3,4]thiadiazol-2-ylideneamino]-2-fluoro-benzoic acid] was 130 nM; that for `Cn1nc(-c2ccccc2Cl)s/c1=N\C1CCCCC1` [I10,1, [5-(2-Chloro-phenyl)-3-methyl-3H-[1,3,4]thiadiazol-2-ylidene]-cyclohexyl-amine] was 1300 nM; that for `Cn1nc(-c2cc(Cl)cc(Cl)c2)s/c1=N\C1CCCCC1` [I17,1, Cyclohexyl-[5-(3,5-dichloro-phenyl)-3-methyl-3H-[1,3,4]thiadiazol-2-ylidene]-amine] was 1300 nM.
